Measurements: article PMC5342262, “Synthesis, in vitro and in vivo evaluation of 3β-[^18F]fluorocholic acid for the detection of drug-induced cholestasis in mice” (PLoS ONE, 2017)

Experiments:
[1] = test system: hepatobiliary transport of [^18F]FCA; assay: Dynamic PET of [^18F]FCA in control, rifampicin and bosentan treated FVB-mice; settings: pretreated FVB-mice; dynamic μPET
Experimental: Hepatobiliary transport of the tracer was evaluated in female wild-type FVB mice (5 weeks old, Charles River). The animals were housed in accordance with European Ethics Committee guidelines. The animal studies were approved by the Animal Experimental Ethical Committee of Ghent University (ECD 15/69). Food and water was provided ad libitum. Animals were fasted overnight before the PET-scan.
Mice were anesthetized with 1.5 v:v % isoflurane in 100% O2 for the duration of the experiment. An intravenous polyethylene line was placed in the lateral tail vein. The animals were placed in the small animal PET/CT-scanner (FLEX Triumph II small animal PET/CT-scanner; PET field of view: 7.5 cm axial; 1.3 mm spatial resolution; TriFoil Imaging) on a heated bed. A CT-scan was acquired for anatomical correlation.
The interaction of rifampicin (Sigma Aldrich) and bosentan (Activate Scientific) on in vivo [^18F]FCA transport was examined. FVB-mice were divided into 3 different groups (n = 3 per group): rifampicin, bosentan, and a control DMSO vehicle treated group). Both drugs were administered in doses of 100 mg/kg, intra-peritoneal in DMSO:PBS 70:30 v:v (rifampicin) or DMSO (bosentan) 1 hour before the start of the PET-scan. An additional dose (25 mg/kg for rifampicin in DMSO:PBS 40:60 v:v, 50 mg/kg for bosentan in DMSO) was co-injected intravenously with the tracer.
For each scan, 10 MBq of [^18F]FCA was administered intravenously and a 1 hour dynamic scan was started. Immediately after the dynamic scan, 18 MBq [^18F]FDG was injected intravenously. After 20 minutes, a 20 minutes static scan was taken.
PET-data were obtained in list-mode and were iteratively reconstructed (50 iterations) in frames of 15 seconds for the first 10 minutes, followed by 50 frames of 1 minute. ROI’s were drawn manually over liver, gallbladder and intestines using PMod software. A ROI was drawn in the left ventricle on the static [^18F]FDG scan to obtain an image-derived arterial blood input curve. The uptake of [^18F]FCA in arterial blood, liver, gallbladder and intestines was expressed as a % injected dose (% ID) and normalized for the weight of a 20 gram mouse. Time-activity curves (TAC’s) were generated using these values.
AUC, maximum % ID, and time to peak values were determined for the TAC’s with Graphpad Prism v3.00. Differences between 2 groups were determined with the non-parametric Mann-Whitney U test. P-values ≤ 0.05 were considered significant.

OATP1B1 = target: T1, OATP1B1 (Homo sapiens, UniProt Q9Y6L6); assay: In vitro uptake assay with [^3H]EbG in HEK-OATP1B1 cells
T1 sequence (Q9Y6L6 1-691): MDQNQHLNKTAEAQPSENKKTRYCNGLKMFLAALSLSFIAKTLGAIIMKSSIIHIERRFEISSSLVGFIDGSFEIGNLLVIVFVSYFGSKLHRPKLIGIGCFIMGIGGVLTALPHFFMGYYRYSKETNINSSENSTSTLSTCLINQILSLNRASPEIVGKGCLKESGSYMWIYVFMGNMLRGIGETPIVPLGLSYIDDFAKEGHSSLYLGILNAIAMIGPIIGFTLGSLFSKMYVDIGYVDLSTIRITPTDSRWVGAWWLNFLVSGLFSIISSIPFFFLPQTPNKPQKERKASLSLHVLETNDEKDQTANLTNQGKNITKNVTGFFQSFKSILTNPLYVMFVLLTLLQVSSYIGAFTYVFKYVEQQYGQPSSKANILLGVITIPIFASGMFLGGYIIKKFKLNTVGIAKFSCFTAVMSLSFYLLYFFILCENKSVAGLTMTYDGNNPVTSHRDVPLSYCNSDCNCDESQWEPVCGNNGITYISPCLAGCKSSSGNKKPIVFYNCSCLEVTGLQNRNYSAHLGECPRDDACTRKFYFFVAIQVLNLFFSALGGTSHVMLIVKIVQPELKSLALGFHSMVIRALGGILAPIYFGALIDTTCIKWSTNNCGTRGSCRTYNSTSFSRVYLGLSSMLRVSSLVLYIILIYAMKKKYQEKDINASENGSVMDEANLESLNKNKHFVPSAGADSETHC
Experimental: (§1) Transport of 3β-fluorocholic acid by NTCP, OATP1B1 and OATP1B3 was assessed using stable transfected cell lines. Chinese hamster ovary (CHO) cells, Human Embryonic Kidney (HEK), HEK293-OATP1B3 cells were purchased from Solvo Biotechnologies; CHO-NTCP and HEK293-OATP1B1 cells were a kind gift from the same company. CHO cells were cultured in Dulbecco’s modified Eagle’s medium (DMEM)/F12 with 10% fetal calf serum, 0.3 mM L-proline, 2 mM glutamine and penicilline/streptomycine (50 U/mL). HEK cells expressing OATP1B1, OATP1B3 and control cell lines were cultured in DMEM glutamax (high glucose/pyruvate) with 10% fetal calf serum, MEM non-essential amino acid supplement and penicilline/streptomycine (50 U/mL). All cell lines were cultured in a 37°C 5% CO2 environment.
(§2) Transport of FCA by the NTCP, OATP1B1 and OATP1B3 transporters was assessed by inhibition of the tritium labeled model substrates uptake.
(§3) Cells were seeded in 24-well plates at 400,000 cells per well. […] The plates were cooled on ice and 1 mL 1% BSA ice-cold HBSS (with Ca and Mg) was added. Cells were washed twice with 2 mL ice-cold HBSS (with Ca and Mg) and were finally lysed with 250 μL 0.1 M NaOH. […] Of the lysate, 150 μL was used for liquid scintillation counting (TriCarb 2900 TR; Perkin Elmer) and 25 μL was subjected to a BCA assay (ThermoFisher Scientific) to determine protein content. Data points were collected in triplicate. IC50-values were calculated with Graphpad Prism v3.00 (Graphpad software).

NTCP = target: T2, NTCP (Homo sapiens, UniProt Q14973); assay: In vitro uptake assay with [^3H]TC in CHO-NTCP cells
T2 sequence (Q14973 1-349): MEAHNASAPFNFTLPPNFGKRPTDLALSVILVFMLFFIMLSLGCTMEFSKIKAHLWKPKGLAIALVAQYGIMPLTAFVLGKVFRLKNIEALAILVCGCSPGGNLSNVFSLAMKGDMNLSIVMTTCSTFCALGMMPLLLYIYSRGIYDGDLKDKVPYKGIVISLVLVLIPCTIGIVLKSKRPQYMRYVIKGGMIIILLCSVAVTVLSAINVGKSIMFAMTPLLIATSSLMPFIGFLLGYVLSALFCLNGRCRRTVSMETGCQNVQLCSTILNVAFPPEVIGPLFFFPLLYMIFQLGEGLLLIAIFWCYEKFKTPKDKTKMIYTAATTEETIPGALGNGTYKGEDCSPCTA
Experimental: as §1, §2
Cells were seeded in 24-well plates at 400,000 cells per well. After 24 hours, the culture medium was removed and cells were washed twice with 1 mL 10 mM HEPES-Hank’s Balanced Salt Solution (HBSS; with Ca and Mg; 37°C pH 7.4) washing buffer. […] Of the dosing solution, 250 μL was added to the washed cells and incubation took place at 37°C for 15 minutes. The plates were cooled on ice and 1 mL 1% BSA ice-cold HBSS (with Ca and Mg) was added. Cells were washed twice with 2 mL ice-cold HBSS (with Ca and Mg) and were finally lysed with 250 μL 0.1 M NaOH. The plates were shaken for 15 minutes at 37°C. Of the lysate, 150 μL was used for liquid scintillation counting (TriCarb 2900 TR; Perkin Elmer) and 25 μL was subjected to a BCA assay (ThermoFisher Scientific) to determine protein content. Data points were collected in triplicate. IC50-values were calculated with Graphpad Prism v3.00 (Graphpad software).

MRP2 = MRP2 (Homo sapiens, UniProt Q92887); assay: In vitro efflux competition assay with [^3H]EbG in MRP2 membrane vesicles
Experimental: (§4) The assay was performed in 96-well plates. […] The final volume in each well was 30 μL. The plates were incubated for 10 minutes at 37°C and uptake was halted by the addition of 150 μL ice-cold buffer solution. The contents of each well were transferred to a glass fiber filter plate (Multiscreen HTS plates; Merck Millipore) and washed 3 times with 200 μL of ice-cold buffer solution. Vesicles were lysed by incubation with 100 μL 0.1 M NaOH for 10 minutes at room temperature. An 80 μL aliquot of this solution was used for liquid scintillation counting. Data points were collected in triplicate. IC50-values were calculated with Graphpad Prism v3.00.

BSEP = BSEP (Homo sapiens, UniProt O95342); assay: In vitro efflux competition assay with [^3H]TC in BSEP membrane vesicles
Experimental: as §4

OATP1B3 = target: T3, OATP1B3 (Homo sapiens, UniProt Q9NPD5); assay: In vitro uptake assay with [^3H]EbG in HEK-OATP1B3 cells
T3 sequence (Q9NPD5 1-702): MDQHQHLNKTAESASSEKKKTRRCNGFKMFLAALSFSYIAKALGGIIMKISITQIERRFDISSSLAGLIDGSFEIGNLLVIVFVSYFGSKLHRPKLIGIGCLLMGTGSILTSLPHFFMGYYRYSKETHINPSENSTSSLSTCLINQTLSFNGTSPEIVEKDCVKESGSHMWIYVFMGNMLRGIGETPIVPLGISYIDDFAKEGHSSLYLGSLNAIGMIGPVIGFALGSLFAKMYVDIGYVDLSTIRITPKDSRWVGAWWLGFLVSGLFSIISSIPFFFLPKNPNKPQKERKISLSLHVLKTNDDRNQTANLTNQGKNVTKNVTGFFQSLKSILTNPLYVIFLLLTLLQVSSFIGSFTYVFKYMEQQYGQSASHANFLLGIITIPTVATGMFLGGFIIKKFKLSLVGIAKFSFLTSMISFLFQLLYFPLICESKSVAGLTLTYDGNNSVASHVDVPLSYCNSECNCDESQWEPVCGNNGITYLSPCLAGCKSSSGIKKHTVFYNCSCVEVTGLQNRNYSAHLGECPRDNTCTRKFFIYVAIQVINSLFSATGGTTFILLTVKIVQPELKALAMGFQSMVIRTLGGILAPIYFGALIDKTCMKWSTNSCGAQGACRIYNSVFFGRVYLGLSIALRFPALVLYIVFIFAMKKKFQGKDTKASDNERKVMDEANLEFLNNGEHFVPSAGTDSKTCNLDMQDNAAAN
Experimental: as §1, §2, §3

[2] = cited from earlier work
[3] = parameters: method as in PMID 27513813; settings: cited from earlier work
[4] = 15 minutes of incubation without added FCA

Chain of MRP2 (Q92887 whole entry): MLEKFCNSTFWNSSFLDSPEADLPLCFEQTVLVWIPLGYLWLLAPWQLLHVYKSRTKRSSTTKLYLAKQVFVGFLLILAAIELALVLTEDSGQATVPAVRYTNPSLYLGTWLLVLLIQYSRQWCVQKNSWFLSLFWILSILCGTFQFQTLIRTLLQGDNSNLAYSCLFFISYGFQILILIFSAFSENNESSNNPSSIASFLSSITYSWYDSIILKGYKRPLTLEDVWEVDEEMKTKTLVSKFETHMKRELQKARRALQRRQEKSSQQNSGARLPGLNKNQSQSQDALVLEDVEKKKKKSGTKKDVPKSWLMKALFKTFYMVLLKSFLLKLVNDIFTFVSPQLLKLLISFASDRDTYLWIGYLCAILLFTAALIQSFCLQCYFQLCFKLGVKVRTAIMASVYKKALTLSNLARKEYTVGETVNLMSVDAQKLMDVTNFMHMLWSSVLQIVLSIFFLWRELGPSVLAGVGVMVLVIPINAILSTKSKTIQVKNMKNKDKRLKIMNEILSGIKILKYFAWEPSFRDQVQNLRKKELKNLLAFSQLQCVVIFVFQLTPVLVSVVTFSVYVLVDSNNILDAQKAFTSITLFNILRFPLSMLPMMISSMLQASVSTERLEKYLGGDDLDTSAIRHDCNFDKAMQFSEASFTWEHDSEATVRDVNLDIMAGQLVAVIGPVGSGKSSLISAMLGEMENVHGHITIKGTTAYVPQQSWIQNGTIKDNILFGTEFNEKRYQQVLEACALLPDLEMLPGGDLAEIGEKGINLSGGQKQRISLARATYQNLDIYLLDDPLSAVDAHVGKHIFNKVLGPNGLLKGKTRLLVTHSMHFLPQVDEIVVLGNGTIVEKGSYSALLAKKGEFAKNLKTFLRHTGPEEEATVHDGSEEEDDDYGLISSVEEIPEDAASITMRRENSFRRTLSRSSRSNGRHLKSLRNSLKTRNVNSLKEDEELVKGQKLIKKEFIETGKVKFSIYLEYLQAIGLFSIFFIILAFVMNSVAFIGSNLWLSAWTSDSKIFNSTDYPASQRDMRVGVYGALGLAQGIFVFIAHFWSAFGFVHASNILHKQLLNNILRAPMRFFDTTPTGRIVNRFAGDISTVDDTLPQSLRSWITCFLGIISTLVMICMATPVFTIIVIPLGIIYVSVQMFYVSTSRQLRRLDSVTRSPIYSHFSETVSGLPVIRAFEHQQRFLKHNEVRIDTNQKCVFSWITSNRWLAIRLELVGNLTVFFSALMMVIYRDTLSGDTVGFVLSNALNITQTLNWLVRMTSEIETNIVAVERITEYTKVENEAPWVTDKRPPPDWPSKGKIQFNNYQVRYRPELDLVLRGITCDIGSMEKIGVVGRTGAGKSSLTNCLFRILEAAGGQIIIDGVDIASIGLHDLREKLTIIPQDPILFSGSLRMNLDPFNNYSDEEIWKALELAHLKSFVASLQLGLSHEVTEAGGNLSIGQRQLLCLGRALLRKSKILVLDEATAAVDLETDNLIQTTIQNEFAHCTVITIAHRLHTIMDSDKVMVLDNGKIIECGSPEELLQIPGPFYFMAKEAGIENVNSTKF
Chain of BSEP (O95342 whole entry): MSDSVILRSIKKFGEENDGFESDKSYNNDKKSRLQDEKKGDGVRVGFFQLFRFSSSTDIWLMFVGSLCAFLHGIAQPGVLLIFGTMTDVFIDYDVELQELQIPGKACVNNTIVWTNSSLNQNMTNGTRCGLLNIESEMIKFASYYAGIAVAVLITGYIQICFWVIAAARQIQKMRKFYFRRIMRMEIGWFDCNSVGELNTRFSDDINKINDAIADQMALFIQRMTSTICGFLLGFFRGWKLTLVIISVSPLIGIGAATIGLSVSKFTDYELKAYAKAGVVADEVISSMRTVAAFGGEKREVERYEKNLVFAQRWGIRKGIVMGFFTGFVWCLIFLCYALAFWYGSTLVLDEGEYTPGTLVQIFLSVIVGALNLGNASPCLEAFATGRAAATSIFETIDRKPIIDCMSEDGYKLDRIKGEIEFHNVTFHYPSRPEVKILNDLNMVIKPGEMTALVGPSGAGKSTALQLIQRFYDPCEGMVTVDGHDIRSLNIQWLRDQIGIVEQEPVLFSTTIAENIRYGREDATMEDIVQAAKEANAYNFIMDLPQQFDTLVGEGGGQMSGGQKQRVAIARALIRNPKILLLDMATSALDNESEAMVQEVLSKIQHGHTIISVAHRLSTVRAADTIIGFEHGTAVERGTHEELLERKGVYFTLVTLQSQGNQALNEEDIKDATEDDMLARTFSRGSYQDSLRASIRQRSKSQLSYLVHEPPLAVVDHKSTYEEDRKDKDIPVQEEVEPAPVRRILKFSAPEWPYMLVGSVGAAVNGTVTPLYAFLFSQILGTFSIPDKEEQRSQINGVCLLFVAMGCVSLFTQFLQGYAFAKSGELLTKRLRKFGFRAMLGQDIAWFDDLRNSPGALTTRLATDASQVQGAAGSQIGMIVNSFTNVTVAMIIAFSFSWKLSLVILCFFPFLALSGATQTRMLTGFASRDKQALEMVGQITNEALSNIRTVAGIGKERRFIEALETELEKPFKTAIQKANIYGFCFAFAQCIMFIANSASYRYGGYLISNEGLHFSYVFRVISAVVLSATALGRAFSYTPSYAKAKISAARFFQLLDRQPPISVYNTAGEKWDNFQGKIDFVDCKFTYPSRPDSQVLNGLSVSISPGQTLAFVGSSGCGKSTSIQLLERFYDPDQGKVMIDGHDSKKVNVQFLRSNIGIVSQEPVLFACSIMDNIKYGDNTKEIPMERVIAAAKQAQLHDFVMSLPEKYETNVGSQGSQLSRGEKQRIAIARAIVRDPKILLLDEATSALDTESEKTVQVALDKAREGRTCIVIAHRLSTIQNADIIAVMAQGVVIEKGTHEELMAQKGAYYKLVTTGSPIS

For `COc1ccccc1Oc1c(NS(=O)(=O)c2ccc(C(C)(C)C)cc2)nc(-c2ncccn2)nc1OCCO` [Bosentan, bosentan, reference compound], the “effect on hepatobiliary transport of [^18F]FCA” value [1] was “significantly inhibited”.
For `C[C@H](CCC(=O)O)[C@H]1CC[C@H]2[C@@H]3[C@H](O)C[C@@H]4C[C@@H](F)CC[C@]4(C)[C@H]3C[C@H](O)[C@]12C` [FCA, 3β-Fluoro-7α,12α-Dihydroxy-5β-Cholanic acid], the IC50 (OATP1B1) was 10.5 ± 1.1 µM, the IC50 (NTCP) was 6.6 ± 0.8 µM and the IC50 (MRP2) was 577 ± 300 µM. It also gave an IC50 (BSEP) of 253 ± 76 µM and an IC50 (OATP1B3) of 25.2 ± 12.7 µM.
In the case of `CO[C@H]1/C=C/O[C@@]2(C)Oc3c(C)c(O)c4c(O)c(c(/C=N/N5CCN(C)CC5)c(O)c4c3C2=O)NC(=O)/C(C)=C\C=C\[C@H](C)[C@H](O)[C@@H](C)[C@@H](O)[C@@H](C)[C@H](OC(C)=O)[C@@H]1C` [Rifampicin, rifampicin], the “effect on ^99mTc mebrofenin canalicular efflux on the SPECT-scan” value ([2]; not told) is given as “complete block of canalicular efflux”.
For `C[C@]12CC[C@@H]3c4ccc(O)cc4CC[C@H]3[C@@H]1CC[C@@H]2O[C@@H]1O[C@H](C(=O)O)[C@@H](O)[C@H](O)[C@H]1O` [[^3H]EbG, [^3H]estradiol-17β-glucuronide], the “uptake in HEK-OATP1B1” value (OATP1B1; [4]) was 84.0 ± 7.7 pmol/mg protein, the “uptake in HEK-OATP1B1 (kinetic profile)” value (OATP1B1; S2 file, 1 µM, 15 minutes) was 163.9 pmol/mg protein and the “uptake in HEK-OATP1B1 versus control” value (OATP1B1; S2 file, 15 minutes) was 115 times. For the same molecule, the “uptake in MRP2 vesicles” value (MRP2; 10 minutes of incubation) was 18.5 ± 3.8 pmol/mg protein, the “uptake in HEK-OATP1B3” value (OATP1B3; [4]) was 8.6 ± 1.3 pmol/mg protein and the “uptake in HEK-OATP1B3 (kinetic profile)” value (OATP1B3; S2 file, 1 µM, 15 minutes) was 19.0 pmol/mg protein. For the same molecule, the “uptake in HEK-OATP1B3 versus control” value (OATP1B3; S2 file, 15 minutes) was 13 times.
For `C[C@H](CCC(=O)NCCS(=O)(=O)O)[C@H]1CC[C@H]2[C@@H]3[C@H](O)C[C@@H]4C[C@H](O)CC[C@]4(C)[C@H]3C[C@H](O)[C@]12C` [[^3H]TC, [^3H]taurocholate], the “uptake in CHO-NTCP cells” value (NTCP; [4]) was 95.2 ± 6.0 pmol/mg protein, the “uptake in CHO-NTCP cells (kinetic profile)” value (NTCP; S2 file, 1 µM, 15 minutes of incubation) was 135.5 pmol/mg protein and the “uptake in CHO-NTCP cells versus control” value (NTCP; S2 file, 15 minutes) was 101 fold.
In the case of `Cc1cc(C)c(NC(=O)CN(CC(=O)[O-])CC(=O)[O-])c(C)c1Br.Cc1cc(C)c(NC(=O)CN(CC(=O)[O-])CC(=O)[O-])c(C)c1Br.[99Tc+4]` [^99mTc-mebrofenin, ^99mTc Mebrofenin], the “% ID in gallbladder and intestines” value ([2]; FVB-mice) is given as 78.1 % ID, the “maximum % ID liver” value ([2]; FVB-mice) is given as 51.8 % ID and the “time to reach maximum % ID in liver” value ([2]; FVB-mice) is given as 2.2 min.
For [^99mTc]-DTPA-CA [^99mTc CA], the “max % ID liver” value [3] is given as 25.7 % ID, the “maximal % ID in gallbladder and intestines” value [3] is given as 47.8 % ID and the “time to reach max % ID in liver” value [3] is given as 12.0 min.
In the case of [^99mTc]-DTPA-CDCA [^99mTc CDCA], the “max % ID liver” value [3] is listed as 37.3 % ID, the “maximal % ID in gallbladder and intestines” value [3] is listed as 62.2 % ID and the “time to reach max % ID in liver” value [3] is listed as 12.7 min.
